Where only a bound is given, the exact number is not on record here.

In this assay the target is T1, hNK2 receptor (Homo sapiens, UniProt P21452).
T1 construct: host or cells: CHO cells
T1 sequence (P21452 1-398): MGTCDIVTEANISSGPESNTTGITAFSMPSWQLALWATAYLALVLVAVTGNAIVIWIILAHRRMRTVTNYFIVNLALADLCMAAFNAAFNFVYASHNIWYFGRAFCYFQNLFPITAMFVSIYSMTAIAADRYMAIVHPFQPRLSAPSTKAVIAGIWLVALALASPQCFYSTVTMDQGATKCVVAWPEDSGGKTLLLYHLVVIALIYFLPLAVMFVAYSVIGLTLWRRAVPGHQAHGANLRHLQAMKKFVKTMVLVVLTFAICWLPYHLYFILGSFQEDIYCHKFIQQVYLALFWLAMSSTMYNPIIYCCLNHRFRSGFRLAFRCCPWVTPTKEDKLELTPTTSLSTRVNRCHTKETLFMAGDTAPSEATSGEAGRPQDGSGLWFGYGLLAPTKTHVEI
Nature of the assay: Radio-ligand ([125I]-NKA) receptor binding inhibitory activity using membrane fraction of hNK2 receptor-expressing CHO cell. The note with it: membrane fraction of hNK2 receptor-expressing CHO cells, 25° C., 30 min. The method in brief:
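Inhibition of [125I]-NKA binding ([…] solution added) measured after 30 min at 25 °C using hNK2-CHO membrane fraction (20 μg/mL suspension) in pH 7.4 Tris buffer containing MnCl2, BSA and protease inhibitors. Filter-bound counts read; activity calculated as fraction of specific binding, non-specific defined with unlabeled NKA.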
A word on the IC50: it is the concentration that gives 50% inhibition. High values mean weaker potency in that assay, low ones greater potency in that assay. In turn, `COC[C@@H]1Nc2ccccc2[C@H]2[C@@H]1CCN2C(=O)[C@H]1CCCC[C@H]1NC(=O)c1ccc(C#N)c(C)c1` [Example 256, 4-Cyano-N-((1R,2S)-2-{[(3aR,4R,9bR)-4-(methoxymethyl)-2,3,3a,4,5,9b-hexahydro-1H-pyrrolo[3,2-c]quinolin-1-yl]carbonyl}cyclohexyl)-3-methylbenzamide] had an IC50 of less than 1 nM.

Compound `COC[C@@H]1Nc2ccccc2[C@H]2[C@@H]1CCN2C(=O)[C@H]1CCCC[C@H]1NC(=O)c1ccc(N2N=C(C)CC2=O)cc1` [Example 252, N-((1R,2S)-2-{[(3aR,4R,9bR)-4-(Methoxymethyl)-2,3,3a,4,5,9b-hexahydro-1H-pyrrolo[3,2-c]quinolin-1-yl]carbonyl}cyclohexyl)-4-(3-methyl-5-oxo-4,5-dihydro-1H-pyrazol-1-yl)benzamide] registered an IC50 of less than 1 nM.

`O=C(NCc1ccc(F)cc1)N[C@@H]1CCCC[C@@H]1C(=O)N1CC[C@@H]2[C@H](c3ccccc3)Nc3ccccc3[C@@H]21` [Example 145, N-(4-Fluorobenzyl)-N′-((1R,2S)-2-{[(3aR,4R,9bR)-4-phenyl-2,3,3a,4,5,9b-hexahydro-1H-pyrrolo[3,2-c]quinolin-1-yl]carbonyl}cyclohexyl)urea] gave an IC50 of less than 10 nM.

Turning to `COc1ccc(CNC(=O)N[C@@H]2CCCC[C@@H]2C(=O)N2CC[C@@H]3[C@H](c4ccccc4)Nc4ccccc4[C@@H]32)cc1` [Example 144, N-(4-Methoxybenzyl)-N′-((1R,2S)-2-{[(3aR,4R,9bR)-4-phenyl-2,3,3a,4,5,9b-hexahydro-1H-pyrrolo[3,2-c]quinolin-1-yl]carbonyl}cyclohexyl)urea], the IC50 is less than 10 nM.

With `O=C(N[C@@H]1CCCC[C@@H]1C(=O)N1CC[C@@H]2[C@H](c3ccccc3)Nc3ccccc3[C@@H]21)N1CCC(c2ccccc2)CC1` [Example 172, 4-Phenyl-N-((1R,2S)-2-{[(3aR,4R,9bR)-4-phenyl-2,3,3a,4,5,9b-hexahydro-1H-pyrrolo[3,2-c]quinolin-1-yl]carbonyl}cyclohexyl)piperidine-1-carboxamide], the IC50 is less than 10 nM.

Compound `O=C(CCCCCN1CCOCC1)N[C@@H]1CCCC[C@@H]1C(=O)N1CC[C@@H]2[C@H](c3ccccc3)Nc3ccccc3[C@@H]21` [Example 117, 6-Morpholin-4-yl-N-((1R,2S)-2-{[(3aR,4R,9bR)-4-phenyl-2,3,3a,4,5,9b-hexahydro-1H-pyrrolo[3,2-c]quinolin-1-yl]carbonyl}cyclohexyl)hexanamide] gave an IC50 of less than 10 nM.

`O=C(N[C@@H]1CCCC[C@@H]1C(=O)N1CC[C@@H]2[C@H](c3ncc[nH]3)Nc3ccccc3[C@@H]21)c1ccc(C(F)(F)F)cc1` [Example 296, N-((1R,2S)-2-{[(3aR,4R,9bR)-4-(1H-Imidazol-2-yl)-2,3,3a,4,5,9b-hexahydro-1H-pyrrolo[3,2-c]quinolin-1-yl]carbonyl}cyclohexyl)-4-(trifluoromethyl)benzamide] came in with an IC50 of less than 1 nM.

`CC(C)C[C@@H]1Nc2ccccc2[C@H]2[C@@H]1CCN2C(=O)[C@H]1CCCC[C@H]1NC(=O)c1ccccc1` [Example 66, N-((1R,2S)-2-{[(3aR,4S,9bR)-4-Isobutyl-2,3,3a,4,5,9b-hexahydro-1H-pyrrolo[3,2-c]quinolin-1-yl]carbonyl}cyclohexyl)benzamide]: the IC50 is less than 10 nM.

Compound `COC[C@@H]1Nc2ccccc2[C@H]2[C@@H]1CCN2C(=O)[C@H]1CCCC[C@H]1NC(=O)CNc1ccccc1` [Example 238, N^1-((1R,2S)-2-{[(3aR,4R,9bR)-4-(Methoxymethyl)-2,3,3a,4,5,9b-hexahydro-1H-pyrrolo[3,2-c]quinolin-1-yl]carbonyl}cyclohexyl)-N^2-phenylglycinamide] returned an IC50 of less than 10 nM.

In the case of `COC[C@@H]1Nc2ccccc2[C@H]2[C@@H]1CCN2C(=O)[C@H]1CCCC[C@H]1NC(=O)c1cccc(C#N)c1` [Example 233, 3-Cyano-N-((1R,2S)-2-{[(3aR,4R,9bR)-4-(methoxymethyl)-2,3,3a,4,5,9b-hexahydro-1H-pyrrolo[3,2-c]quinolin-1-yl]carbonyl}cyclohexyl)benzamide], the 50% inhibitory concentration (IC50) is less than 10 nM.

Compound `O=C(Nc1ccccc1)N[C@@H]1CCCC[C@@H]1C(=O)N1CC[C@@H]2[C@H](c3ncc[nH]3)Nc3ccccc3[C@@H]21` [Example 293, N-((1R,25)-2-{[(3aR,4R,9bR)-4-(1H-Imidazol-2-yl)-2,3,3a,4,5,9b-hexahydro-1H-pyrrolo[3,2-c]quinolin-1-yl]carbonyl}cyclohexyl)-N′-phenylurea] gave an IC50 of less than 1 nM.

In turn, `CCC[C@@H]1Nc2ccccc2[C@H]2[C@@H]1CCN2C(=O)[C@H]1CCCC[C@H]1NC(=O)c1ccccc1` [Example 62, N-{(1R,2S)-2-[(3aR,4S,9bR)-(4-Propyl-2,3,3a,4,5,9b-hexahydro-1H-pyrrolo[3,2-c]quinolin-1-yl)carbonyl]cyclohexyl}benzamide] had an IC50 of less than 1 nM.

Consider `COC[C@@H]1Nc2ccccc2[C@H]2[C@@H]1CCN2C(=O)[C@H]1CCCC[C@H]1NC(=O)c1ccc2[nH]c(C(F)(F)F)nc2c1` [Example 282, N-((1R,2S)-2-{[(3aR,4R,9bR)-4-(Methoxymethyl)-2,3,3a,4,5,9b-hexahydro-1H-pyrrolo[3,2-c]quinolin-1-yl]carbonyl}cyclohexyl)-2-(trifluoromethyl)-1H-benzimidazole-5-carboxamide], for which the IC50 was less than 10 nM.

The compound `COC[C@@H]1Nc2ccccc2[C@H]2[C@@H]1CCN2C(=O)[C@H]1CCCC[C@H]1NC(=O)c1ccc(C)nc1` [Example 211, N-((1R,2S)-2-{[(3aR,4R,9bR)-4-(Methoxymethyl)-2,3,3a,4,5,9b-hexahydro-1H-pyrrolo[3,2-c]quinolin-1-yl]carbonyl}cyclohexyl)-6-methylnicotinamide] returned an IC50 of less than 10 nM.

Compound `O=C(Nc1cccc(Cl)c1)N[C@@H]1CCCC[C@@H]1C(=O)N1CC[C@@H]2[C@H](c3ccccc3)Nc3ccccc3[C@@H]21` [Example 141, N-(3-Chlorophenyl)-N′-((1R,2S)-2-{[(3aR,4R,9bR)-4-phenyl-2,3,3a,4,5,9b-hexahydro-1H-pyrrolo[3,2-c]quinolin-1-yl]carbonyl}cyclohexyl)urea] yielded an IC50 of less than 10 nM.

The compound `COC[C@@H]1Nc2ccccc2[C@H]2[C@@H]1CCN2C(=O)[C@H]1CCCC[C@H]1NC(=O)c1ccc(OC(F)F)cc1` [Example 234, 4-(Difluoromethoxy)-N-((1R,2S)-2-{[(3aR,4R,9bR)-4-(methoxymethyl)-2,3,3a,4,5,9b-hexahydro-1H-pyrrolo[3,2-c]quinolin-1-yl]carbonyl}cyclohexyl)benzamide] returned an IC50 of less than 1 nM.

On to `COC[C@@H]1Nc2ccccc2[C@H]2[C@@H]1CCN2C(=O)[C@H]1CCCC[C@H]1NC(=O)c1c[nH]c(-c2ccccc2)n1` [Example 280, N-((1R,2S)-2-{[(3aR,4R,9bR)-4-(Methoxymethyl)-2,3,3a,4,5,9b-hexahydro-1H-pyrrolo[3,2-c]quinolin-1-yl]carbonyl}cyclohexyl)-2-phenyl-1H-imidazole-4-carboxamide], for which the IC50 is less than 1 nM.

Take `COC[C@@H]1Nc2ccccc2[C@H]2[C@@H]1CCN2C(=O)[C@H]1CCCC[C@H]1NC(=O)c1ccc2c(c1)OCCN2C` [Example 269, N-((1R,2S)-2-{[(3aR,4R,9bR)-4-(Methoxymethyl)-2,3,3a,4,5,9b-hexahydro-1H-pyrrolo[3,2-c]quinolin-1-yl]carbonyl}cyclohexyl)-4-methyl-3,4-dihydro-2H-1,4-benzoxazin-7-carboxamide]: the IC50 was less than 1 nM.

As for `O=C(Nc1ccccc1)N[C@@H]1CCCC[C@@H]1C(=O)N1CC[C@@H]2[C@H](c3ccccc3)Nc3ccccc3[C@@H]21` [Example 135, N-phenyl-N′-((1R,2S)-2-{[(3aR,4R,9bR)-4-phenyl-2,3,3a,4,5,9b-hexahydro-1H-pyrrolo[3,2-c]quinolin-1-yl]carbonyl}cyclohexyl)urea], the IC50 is less than 1 nM.

Regarding `O=C(NCCc1ccccn1)N[C@@H]1CCCC[C@@H]1C(=O)N1CC[C@@H]2[C@H](c3ccccc3)Nc3ccccc3[C@@H]21` [Example 164, N-((1R,2S)-2-{[(3aR,4R,9bR)-4-Phenyl-2,3,3a,4,5,9b-hexahydro-1H-pyrrolo[3,2-c]quinolin-1-yl]carbonyl}cyclohexyl)-N′-(2-pyridin-2-ylethyl)urea], the IC50 is less than 1 nM.

In turn, `COC[C@@H]1Nc2ccccc2[C@H]2[C@@H]1CCN2C(=O)[C@H]1CCCC[C@H]1NC(=O)c1ccc(-n2ccnc2C)cc1` [Example 271, N-((1R,2S)-2-{[(3aR,4R,9bR)-4-(Methoxymethyl)-2,3,3a,4,5,9b-hexahydro-1H-pyrrolo[3,2-c]quinolin-1-yl]carbonyl}cyclohexyl)-4-(2-methyl-1H-imidazol-1-yl)benzamide] showed an IC50 of less than 10 nM.

`CC(C)c1ccc(NC(=O)N[C@@H]2CCCC[C@@H]2C(=O)N2CC[C@@H]3[C@H](c4ccccc4)Nc4ccccc4[C@@H]32)cc1` [Example 150, N-(4-Isopropylphenyl)-N′-((1R,2S)-2-{[(3aR,4R,9bR)-4-phenyl-2,3,3a,4,5,9b-hexahydro-1H-pyrrolo[3,2-c]quinolin-1-yl]carbonyl}cyclohexyl)urea] registered an IC50 of less than 10 nM.

On to `COc1ccc(C(=O)N[C@@H]2CCCC[C@@H]2C(=O)N2CC[C@@H]3[C@H](c4ccccc4)Nc4ccccc4[C@@H]32)cc1` [Example 90, 4-Methoxy-N-((1R,2S)-2-{[(3aR,4R,9bR)-4-phenyl-2,3,3a,4,5,9b-hexahydro-1H-pyrrolo[3,2-c]quinolin-1-yl]carbonyl}cyclohexyl)benzamide], for which the IC50 was less than 1 nM.
